In BindingDB's records for doi:10.1016/s0960-894x(02)00639-x (Monash University (Parkville Campus), 2002):

Legend:
[1] = Equilibrium dissociation constant for [3H]DPCPX binding to Adenosine A1 receptor from DDT1 MF2 cell membranes
[2] = Inhibitory concentration against [3H]DPCPX binding to Adenosine A1 receptor from DDT1 MF2 cells
[3] = Equilibrium dissociation constant for [3H]DPCPX binding to Adenosine A1 receptor from DDT1 MF2 cell membranes; remark: listed apart in the source

SMILES | Kd [1] | IC50 [2] | IC50 [3]
CCCn1c(=O)c2[nH]c(C3CC4CCC3C4)nc2n(CCCCC(=O)c2ccc(S(=O)(=O)F)cc2)c1=O (stereo not given) [4-[5-(8-Bicyclo[2.2.1]hept-2-yl-2,6-dioxo-1-propyl-1,2,6,7-tetrahydro-purin-3-yl)-pentanoyl]-benzenesulfonyl fluoride] | 0.53 nM | 3.9 nM | 
CCCn1c(=O)c2[nH]c(C3CCCCC3)nc2n(CCCCC(=O)c2ccc(S(=O)(=O)F)cc2)c1=O [4-[5-(8-Cyclohexyl-2,6-dioxo-1-propyl-1,2,6,7-tetrahydro-purin-3-yl)-pentanoyl]-benzenesulfonyl fluoride] |  | 17 nM | 
CCCn1c(=O)c2[nH]c(C3CCCC3)nc2n(CCCCC(=O)c2ccc(S(=O)(=O)F)cc2)c1=O [4-[5-(8-Cyclopentyl-2,6-dioxo-1-propyl-1,2,6,7-tetrahydro-purin-3-yl)-pentanoyl]-benzenesulfonyl fluoride] | 0.53 nM |  | 8.7 nM
